Measurements taken from patent US9962351B2, “Small molecule substance for improving sensitivity of bacteria to antibiotics” (priority 2012, dated 2018).
Values joined by “and” are separate entries in the source; they are usually repeats but may differ in a detail not shown here. Equal entries are not always repeated. Where two headings read alike, the source gives them in different places.

Columns and labels:
[1] = system: 6 species of antibiotic resistant Escherichia coli (GEN-R, AMP-R, BLFX-R, KAN-R, NA-R and CAZ-R); conditions: 20 mM glutamine plus 8 μg/mL balofloxacin, 50 μg/mL gentamicin, 160 μg/mL nalidixic acid, ceftazidime, kanamycin or ampicillin; 4 h
Experimental: (§1) Bacterium cultures of 20 mL were collected and centrifuged at 8,000 rpm for 5 minutes. The bacterial pellets were washed with equal volume of 0.85% saline solution, suspended in M9 medium containing 10 mM sodium acetate and then adjusted to OD600 of 0.5. […] These mixtures were cultured in a shaker at 200 rpm at 37° C. for 4 h. Then 100 μL of bacterial suspension was used for bacterial plate counting.

[2] = system: ampicillin-resistant Escherichia coli (AMP-R); assay type: cell-based; conditions: 20 mM glutamine; for killing efficiency increase compared with the treatment without glutamine: 4 hours
Experimental: as §1
To investigate the effect of antibiotic dose on the sensitivity of bacteria to antibiotics by glutamine, 20 mM glutamine and 20, 40, 80, 160, 240, 320 and 400 μg/mL ampicillin were used to treat ampicillin-resistant Escherichia coli for 4 hours, and then bacterial plate counting was conducted. The survival rates of bacteria with and without glutamine were compared at the same antibiotic concentration.
To investigate the effect of exposure time on the killing efficiency, the viable counts of bacteria were counted during 1-8 hours after spiked with 20 mM glutamine and 160 μg/mL ampicillin.
To investigate the effect of glutamine concentration on killing efficiency and the optimum bactericidal concentrations, different concentrations of glutamine were added to 160 μg/mL ampicillin. The number of live bacteria was counted after 4 hours. The survival rate was calculated according to the formula below: viable counts at different concentration of glutamine/viable counts without glutamine×100%.
Single clone of ampicillin-resistant Escherichia coli was selected and inoculated in 100 mL LB medium and cultured at 200 rpm at 37° C. for 16 hours. Bacterial suspension of 20 mL was collected and centrifuged at 8,000 rpm for 5 min. The resulting bacterial pellets were washed with equal volume of 0.85% saline solution, suspended in M9 medium containing 10 mM sodium acetate and then adjusted to […] of 0.5. Aliquots of 5 mL bacterial cells were transferred to test tubes for further application.
The sample was added with 160 μg/mL ampicillin and 0-20 Mm glucose, then cultured in a shaker at 200 rpm at 37° C. for 4 hours. The cell number was counted and survival rate was calculated. […]

[3] = system: Escherichia coli K12 BW25113 (control bacteria); assay: Viable counts and survival rate of control bacteria; assay type: cell-based; conditions: 4 hours
Experimental: (§2) The viable counts and survival rate of bacteria were calculated after added with 20 mM glutamine and 160 μg/mL ampicillin for 4 hours.
(§3) The viable counts and survival rate of bacteria were calculated after added with 20 mM glutamine and 4 kinds of penicillins (does for control bacteria were: ampicillin 25 μg/mL, penicillin G 200 μg/mL, amoxicillin 20 μg/mL, carbenicillin 100 μg/mL; does for antibiotic resistant bacteria were: ampicillin 320 μg/mL, penicillin G 2560 μg/mL, amoxicillin 512 μg/mL, carbenicillin 320 μg/mL) for 4 hours.
The viable counts and survival rate of bacteria were calculated after added with 20 mM glutamine and antibiotics at the concentration of 8 times of MIC for 4 hours.

[4] = system: eight species of antibiotic resistant Escherichia coli; assay: Viable counts and survival rate of several antibiotic resistant bacteria with ampicillin; assay type: cell-based; conditions: 20 mM glutamine, 160 μg/mL ampicillin, 4 hours
Experimental: as §2

[5] = system: penicillin-resistant Escherichia coli (4 antibiotic resistant bacteria); assay: Viable counts and survival rate of penicillin-resistant bacteria with 4 penicillins; assay type: cell-based; conditions: 20 mM glutamine with ampicillin 320 μg/mL, penicillin G 2560 μg/mL, amoxicillin 512 μg/mL or carbenicillin 320 μg/mL, 4 hours
Experimental: as §3, with “To investigate whether the sensitivity of Escherichia coli and antibiotic resistant Escherichia coli to penicillin antibiotics was improved with glutamine, the samples of control bacteria and penicillin-resistant bacteria were prepared according to Embodiment 2.1. The” for “The”, “hours. […] The sensitivity of control bacteria increased 38-1000 times and 71-1900 times for 4 antibiotic resistant bacteria when added with glutamine.” for “hours.”

[6] = system: Staphylococcus aureus, Edwardsiella tarda, Beta streptococcus, Pseudomonas aeruginosa, Escherichia coli, Vibrio alginolyticus and Vibrio parahaemolyticus; assay: Plate counting of several species of bacteria with ampicillin and glutamine; assay type: cell-based; conditions: 20 mM glutamine and ampicillin at double MIC for each strain, 4 hours
Experimental: (Staphylococcus aureus, B. streptococcus, Pseudomonas aeruginosa, Escherichia coli) or 30° C. (the others) for 16 hours.

[7] = system: ampicillin-resistant Escherichia coli biofilm; assay: Biofilm on PE-50 catheters in vitro, survival rate; assay type: cell-based; conditions: 6 hours
Experimental: (§4) Single clone of ampicillin-resistant Escherichia coli was selected and incubated in LB medium overnight, then transferred into 2 mL fresh LB medium according to the proportion of 1:200 dilutions and transferred to 6 mm ultraviolet sterilized PE-50 catheters. The catheters were inoculated in 1 mL LB at 37 for 24 h. The culture medium was changed every 24 hours for 3 days. The biofilm of ampicillin-resistant bacteria in PE50 catheters were washed with 1 mL sterile phosphate-buffered saline five times to remove loosely adherent cells, and then transferred to 1.5 mL EP tubes.
The test was divided into six groups: saline solution control, 20 mM glutamine, 160 μg/mL ampicillin, 160 μg/mL ampicillin plus 20 mM glutamine, 160 μg/mL ampicillin plus 20 mM glucose, 160 μg/mL ampicillin plus 20 mM glutamine and 20 mM glucose. The catheters were cultured in a shaker at 200 rpm at 37 for 6 hours. The bacterial biofilm was removed from catheters with sonication for 10 minutes. Serial dilutions and spot-plating were performed to determine the cell number. The bacterial survival rate was calculated as: viable counts in treatment group/viable counts in control group×100%.

[8] = system: ampicillin-resistant Escherichia coli biofilm; assay: Mouse urinary tract catheter biofilm model, bacterial survival rate in biofilm; assay type: in vivo; conditions: mice, tail intravenous injection twice-daily for 3 days; glutamine 100 mg kg−1, glucose 100 mg kg−1, ampicillin 320 mg kg−1 as present
Experimental: as §4
In vivo experiments in mice, female mice (5 weeks, weighing 18-20 g) received surgical implantation in the urinary tract of PESO catheter tubes. The mice were randomly divided into six groups in 48 h after the surgery, five each group. The six groups included treatment with saline (group 1), 100 mg kg^−1 glutamine (group 2), 320 mg kg^−1 ampicillin (group 3), 100 mg kg^−1 glutamine plus 320 mg kg^−1 ampicillin (group 4), 100 mg kg^−1 glucose plus 320 mg kg^−1 ampicillin (group 5), and 100 mg kg^−1 glutamine and 100 mg kg^−1 glucose plus 320 mg kg^−1 ampicillin (group 6) by tail intravenous injection for 3 days, twice-daily. Catheter tubes were extracted in 24 hours after the last treatment. […] The survival rate was calculated as: viable counts in treatment group/viable counts in control group×100%.

[9] = system: antibiotic-resistant bacteria in kidneys; assay: Mouse urinary tract infection model, bacterial content in kidneys; assay type: in vivo; conditions: mice, tail i.v. twice-daily for 3 days; glutamine 100 mg kg−1, glucose 100 mg kg−1, ampicillin 320 mg kg−1 as present; saline group 16750
Experimental: In vivo experiments in mice, female mice (5 weeks, weighing 18-20 g) received surgical implantation in the urinary tract of PESO catheter tubes. The mice were randomly divided into six groups in 48 h after the surgery, five each group. The six groups included treatment with saline (group 1), 100 mg kg^−1 glutamine (group 2), 320 mg kg^−1 ampicillin (group 3), 100 mg kg^−1 glutamine plus 320 mg kg^−1 ampicillin (group 4), 100 mg kg^−1 glucose plus 320 mg kg^−1 ampicillin (group 5), and 100 mg kg^−1 glutamine and 100 mg kg^−1 glucose plus 320 mg kg^−1 ampicillin (group 6) by tail intravenous injection for 3 days, twice-daily. Catheter tubes were extracted in 24 hours after the last treatment. To dislodge biofilm cells, catheters were suspended in saline solution with ultrasonic. Serial dilutions and spot-plating were performed to determine the bacterial survival rate in biofilm. The survival rate was calculated as: viable counts in treatment group/viable counts in control group×100%.
Meanwhile, kidneys of mice were homogeneous with appropriate amount of saline. Bacterial content in kidneys was determined by plate counting method.

Structure (SMILES): NC(=O)CC[C@H](N)C(=O)O [glutamine]
- sensitivity of antibiotic resistant bacteria to respective antibiotic [1]: improved the sensitivity of 6 species of antibiotic resistant bacteria to respective antibiotic
- killing efficiency increase compared with the treatment without glutamine ([2]; 20 μg/mL ampicillin): 1.12 folds
- killing efficiency increase compared with the treatment without glutamine ([2]; 40 μg/mL ampicillin): 1.57 folds
- killing efficiency increase compared with the treatment without glutamine ([2]; 80 μg/mL ampicillin): 1.95 folds
- elevated sensitivity of ampicillin-resistant bacteria to ampicillin ([2]; 160 μg/mL ampicillin, 4 h): about 200 folds
- killing efficiency increase compared with the treatment without glutamine ([2]; 160 μg/mL ampicillin): 7.66 folds
- killing efficiency increase ([2]; 160 μg/mL ampicillin, after 4 hours or more): 8-22 times
- killing efficiency increase compared with the treatment without glutamine ([2]; 240 μg/mL ampicillin): 24.29 folds
- killing efficiency increase compared with the treatment without glutamine ([2]; 320 μg/mL ampicillin): 137.78 folds
- killing efficiency increase compared with the treatment without glutamine ([2]; 400 μg/mL ampicillin): 171.34 folds and 200 folds
- sensitivity to four types of penicillins increased ([3]; 20 mM glutamine with ampicillin 25 μg/mL, penicillin G 200 μg/mL, amoxicillin 20 μg/mL or carbenicillin 100 μg/mL): 38-1000 times
- sensitivity to 4 kinds of antibiotics improved ([3]; 20 mM glutamine with tetracycline, erythromycin, clindamycin or rifampicin at 8 times of MIC): approximately 1.5 times
- sensitivity to ampicillin increased ([3]; 20 mM glutamine, 160 μg/mL ampicillin): 1.75 times
- sensitivity to ampicillin increased [4]: 4-36 times
- sensitivity to four types of penicillins increased [5]: 71-1900 times
- sensitivity of several species of bacteria to ampicillin [6]: improved generally
- elimination of biofilm by single agent ([7]; 20 mM glutamine or 160 μg/mL ampicillin alone): did not eliminate the antibiotic-resistant bacterium biofilm
- bacterial survival rate in biofilm (treatment group/saline control) ([7]; 20 mM glutamine, 160 μg/mL ampicillin, 20 mM glucose as present): 96.03%
- bacterial survival rate in catheter biofilm in comparison with saline control [8]: 88.24%
- bacterial content in kidneys [9]: 9113 cell/g
